Results from PMC7469689, “Substituted 4,5′-Bithiazoles as Catalytic Inhibitors of Human DNA Topoisomerase IIα” (Journal of Chemical Information and Modeling, 2020).

Tests used:
human topo IIα = target: T1, human topo IIα (Homo sapiens, UniProt P11388); experiment: Human topo IIα-mediated cleavage assay; format: biochemical
T1 construct: purchased Inspiralis (Norwich, U.K.)
Text: To determine whether compounds act as catalytic inhibitors, a cleavage assay was next performed for compounds 1 and 9.
We performed the assay in collaboration with Inspiralis (Norwich, U.K.).

[1] = target: T2, human topo IIα ATPase domain (Homo sapiens, UniProt P11388); experiment: Microscale thermophoresis (MST) binding; conditions: truncated human topo IIα ATPase domain; three independent runs
T2 construct: the ATPase domain of human topo IIα with 1–453 amino acid residues; purchased Inspiralis

Solubility observations = format: physicochemical; conditions: 500 μM; erratic readings

T1 sequence (P11388 whole entry): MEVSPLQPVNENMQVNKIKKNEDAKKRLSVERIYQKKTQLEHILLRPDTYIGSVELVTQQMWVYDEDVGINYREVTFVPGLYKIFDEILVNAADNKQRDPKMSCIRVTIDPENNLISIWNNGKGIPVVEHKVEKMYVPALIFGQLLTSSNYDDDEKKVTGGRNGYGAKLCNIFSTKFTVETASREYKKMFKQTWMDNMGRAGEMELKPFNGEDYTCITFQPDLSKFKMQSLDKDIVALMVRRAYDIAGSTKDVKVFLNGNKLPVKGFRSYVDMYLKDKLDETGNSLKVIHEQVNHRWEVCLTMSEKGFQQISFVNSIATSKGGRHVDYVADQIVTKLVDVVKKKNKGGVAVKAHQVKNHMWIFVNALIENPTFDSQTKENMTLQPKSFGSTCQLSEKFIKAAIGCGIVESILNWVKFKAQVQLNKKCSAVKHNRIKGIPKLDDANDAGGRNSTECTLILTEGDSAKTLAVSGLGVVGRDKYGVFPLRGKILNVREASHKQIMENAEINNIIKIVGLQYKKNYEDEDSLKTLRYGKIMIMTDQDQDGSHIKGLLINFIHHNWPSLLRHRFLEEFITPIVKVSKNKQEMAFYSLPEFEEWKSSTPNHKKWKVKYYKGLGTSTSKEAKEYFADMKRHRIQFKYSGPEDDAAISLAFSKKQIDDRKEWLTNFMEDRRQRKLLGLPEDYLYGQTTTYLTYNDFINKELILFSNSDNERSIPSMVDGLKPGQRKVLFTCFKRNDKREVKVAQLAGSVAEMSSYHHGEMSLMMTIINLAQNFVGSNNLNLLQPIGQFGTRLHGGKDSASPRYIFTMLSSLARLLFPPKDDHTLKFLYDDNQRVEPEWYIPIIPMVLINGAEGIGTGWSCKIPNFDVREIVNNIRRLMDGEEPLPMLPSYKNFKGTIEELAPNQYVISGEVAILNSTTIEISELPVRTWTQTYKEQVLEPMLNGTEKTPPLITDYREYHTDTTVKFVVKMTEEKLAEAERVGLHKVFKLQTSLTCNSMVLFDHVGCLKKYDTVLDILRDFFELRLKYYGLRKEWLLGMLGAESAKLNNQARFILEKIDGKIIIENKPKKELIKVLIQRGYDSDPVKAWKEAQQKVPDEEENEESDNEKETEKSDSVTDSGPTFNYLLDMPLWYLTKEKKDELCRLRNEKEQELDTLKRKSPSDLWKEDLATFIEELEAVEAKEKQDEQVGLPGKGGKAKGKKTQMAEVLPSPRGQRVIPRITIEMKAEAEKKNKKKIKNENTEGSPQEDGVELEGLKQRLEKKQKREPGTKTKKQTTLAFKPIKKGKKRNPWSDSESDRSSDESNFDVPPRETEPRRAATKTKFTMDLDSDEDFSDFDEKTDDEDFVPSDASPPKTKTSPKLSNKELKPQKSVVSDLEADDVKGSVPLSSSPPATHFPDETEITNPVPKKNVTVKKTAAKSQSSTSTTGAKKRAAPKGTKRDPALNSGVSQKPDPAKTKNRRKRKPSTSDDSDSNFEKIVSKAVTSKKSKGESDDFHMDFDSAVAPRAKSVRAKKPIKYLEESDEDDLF
T2 sequence (P11388 1-453): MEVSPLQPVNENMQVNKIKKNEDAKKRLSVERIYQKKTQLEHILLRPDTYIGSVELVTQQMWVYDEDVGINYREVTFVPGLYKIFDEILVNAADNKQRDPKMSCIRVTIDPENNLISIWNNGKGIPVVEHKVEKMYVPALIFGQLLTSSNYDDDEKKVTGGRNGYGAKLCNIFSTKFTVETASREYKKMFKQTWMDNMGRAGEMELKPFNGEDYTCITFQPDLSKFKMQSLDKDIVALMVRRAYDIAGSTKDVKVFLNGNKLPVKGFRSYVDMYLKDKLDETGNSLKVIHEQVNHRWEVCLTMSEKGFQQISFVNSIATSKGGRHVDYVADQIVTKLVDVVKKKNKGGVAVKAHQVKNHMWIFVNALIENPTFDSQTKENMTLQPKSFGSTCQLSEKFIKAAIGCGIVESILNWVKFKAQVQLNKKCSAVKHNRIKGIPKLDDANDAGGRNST

% Linear DNA (first column) (human topo IIα; 3.9 μM): 8.05% | % Linear DNA (second column) (human topo IIα; 3.9 μM): 5.57% | % Linear DNA (first column) (human topo IIα; 31.5 μM): 6.32% | % Linear DNA (second column) (human topo IIα; 31.5 μM): 7.77% | % Linear DNA (first column) (human topo IIα; 125 μM): 3.02% | % Linear DNA (second column) (human topo IIα; 125 μM): 2.85% | % Linear DNA (first column) (human topo IIα; 500 μM): 2.45% | % Linear DNA (second column) (human topo IIα; 500 μM): 2.98% | Kd [1]: 50.6 ± 7.6 µM | solubility in the ATPase assay (Solubility observations): solubility problems
SMILES: Cc1nc(N)sc1-c1csc(Nc2ccc(C(F)(F)F)cc2)n1 [Compound 1]
linear DNA formation in cleavage assay (in words) (human topo IIα; four concentrations): did not reveal a significant amount of linear DNA above the background level
